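48-hour exposure; five concentrations; linearly interpolated endpoints. GI50 is the concentration that inhibits growth by half. TGI: total growth inhibition.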
Columns and labels:
Assay in all cases: growth of human tumour cells (NCI), 48 h
SW-620 colon = system: SW-620 colon
SN12C renal = system: SN12C renal
MDA-MB-231 breast = system: MDA-MB-231 breast
A549 NSCLC = system: A549 NSCLC
SR leukemia = system: SR leukemia
786-0 renal = system: 786-0 renal
NCI-H460 lung = system: NCI-H460 lung
EKVX NSCLC = system: EKVX NSCLC
RPMI-8226 leukemia = system: RPMI-8226 leukemia
RXF 393 renal = system: RXF 393 renal
HT29 colon = system: HT29 colon
HS 578T breast = system: HS 578T breast
SF-295 CNS = system: SF-295 CNS
M14 melanoma = system: M14 melanoma
HOP-62 NSCLC = system: HOP-62 NSCLC
KM12 colon = system: KM12 colon
NCI-H226 lung = system: NCI-H226 lung
PC-3 prostate = system: PC-3 prostate
CAKI-1 renal = system: CAKI-1 renal
SNB-19 CNS = system: SNB-19 CNS
IGROV1 ovarian = system: IGROV1 ovarian
SNB-75 CNS = system: SNB-75 CNS
T-47D breast = system: T-47D breast
MALME-3M melanoma = system: MALME-3M melanoma
MDA-MB-435 = system: MDA-MB-435
OVCAR-8 ovarian = system: OVCAR-8 ovarian
SF-268 CNS = system: SF-268 CNS
SF-539 CNS = system: SF-539 CNS
DU-145 prostate = system: DU-145 prostate
NCI/ADR-RES ovarian = system: NCI/ADR-RES ovarian
UACC-257 melanoma = system: UACC-257 melanoma
SK-MEL-28 melanoma = system: SK-MEL-28 melanoma
OVCAR-4 ovarian = system: OVCAR-4 ovarian
HCC-2998 colon = system: HCC-2998 colon
U251 CNS = system: U251 CNS
HCT-15 colon = system: HCT-15 colon
A498 renal = system: A498 renal
NCI-H23 lung = system: NCI-H23 lung
SK-MEL-5 melanoma = system: SK-MEL-5 melanoma
BT-549 breast = system: BT-549 breast
K-562 leukemia = system: K-562 leukemia
HOP-92 NSCLC = system: HOP-92 NSCLC
TK-10 renal = system: TK-10 renal
MCF7 breast = system: MCF7 breast
CCRF-CEM leukemia = system: CCRF-CEM leukemia
ACHN renal = system: ACHN renal
MOLT-4 leukemia = system: MOLT-4 leukemia
COLO 205 colon = system: COLO 205 colon
LOX IMVI melanoma = system: LOX IMVI melanoma
UACC-62 melanoma = system: UACC-62 melanoma
NCI-H522 lung = system: NCI-H522 lung
UO-31 renal = system: UO-31 renal
SK-MEL-2 melanoma = system: SK-MEL-2 melanoma
HCT-116 colon = system: HCT-116 colon
OVCAR-3 ovarian = system: OVCAR-3 ovarian
OVCAR-5 ovarian = system: OVCAR-5 ovarian

Compound `Nc1[nH]nc2nc(-c3cc(Cl)ccc3Cl)cc(-c3ccc(F)cc3)c12` has a GI50 (SW-620 colon) of 25.4 µM, a TGI (SW-620 colon) of 68.7 µM and a GI50 (SN12C renal) of 20.4 µM. The TGI (SN12C renal) was 38.6 µM, the GI50 (MDA-MB-231 breast) was 19.9 µM and the TGI (MDA-MB-231 breast) was 61.1 µM. For the same compound, the GI50 (A549 NSCLC) was 22.9 µM, the TGI (A549 NSCLC) was 87.3 µM and the GI50 (SR leukemia) was 18 µM. For the same compound, the TGI (SR leukemia) was 69.2 µM, the GI50 (786-0 renal) was 23.7 µM and the TGI (786-0 renal) was 59.2 µM. For the same compound, the GI50 (NCI-H460 lung) was 19.7 µM, the TGI (NCI-H460 lung) was 58 µM and the GI50 (EKVX NSCLC) was 17.5 µM. It also gave a TGI (EKVX NSCLC) of 58.3 µM, a GI50 (RPMI-8226 leukemia) of 18.4 µM and a TGI (RPMI-8226 leukemia) of 50.5 µM. For the same compound, the GI50 (RXF 393 renal) was 18.3 µM, the TGI (RXF 393 renal) was 42.3 µM and the GI50 (HT29 colon) was 32.5 µM. For the same compound, the TGI (HT29 colon) was over 100 µM, the GI50 (HS 578T breast) was 24.1 µM and the TGI (HS 578T breast) was 53.7 µM. The GI50 (SF-295 CNS) was 25.7 µM, the TGI (SF-295 CNS) was 73.4 µM and the GI50 (M14 melanoma) was 27.9 µM. The TGI (M14 melanoma) was 49.8 µM, the GI50 (HOP-62 NSCLC) was 22.7 µM and the TGI (HOP-62 NSCLC) was 47.8 µM. It also gave a GI50 (KM12 colon) of 22.6 µM, a TGI (KM12 colon) of 58 µM and a GI50 (NCI-H226 lung) of 22.6 µM. It also gave a TGI (NCI-H226 lung) of 60.6 µM, a GI50 (PC-3 prostate) of 28.3 µM and a TGI (PC-3 prostate) of 90.3 µM. For the same compound, the GI50 (CAKI-1 renal) was 26.9 µM, the TGI (CAKI-1 renal) was over 100 µM and the GI50 (SNB-19 CNS) was 35.7 µM. The TGI (SNB-19 CNS) was over 100 µM, the GI50 (IGROV1 ovarian) was 19 µM and the TGI (IGROV1 ovarian) was 48.7 µM. For the same compound, the GI50 (SNB-75 CNS) was 51.5 µM, the TGI (SNB-75 CNS) was over 100 µM and the GI50 (T-47D breast) was 20.2 µM. For the same compound, the TGI (T-47D breast) was over 100 µM, the GI50 (MALME-3M melanoma) was 27.2 µM and the TGI (MALME-3M melanoma) was 59.3 µM. The GI50 (MDA-MB-435) was 30.3 µM, the TGI (MDA-MB-435) was 56 µM and the GI50 (OVCAR-8 ovarian) was 14.3 µM. The TGI (OVCAR-8 ovarian) was 59.5 µM, the GI50 (SF-268 CNS) was 18.2 µM and the TGI (SF-268 CNS) was 43.6 µM. For the same compound, the TGI (SF-539 CNS) was 21.1 µM, the GI50 (DU-145 prostate) was 23.6 µM and the TGI (DU-145 prostate) was 53.8 µM. It also gave a GI50 (NCI/ADR-RES ovarian) of 23 µM, a TGI (NCI/ADR-RES ovarian) of 59.9 µM and a GI50 (UACC-257 melanoma) of 25.2 µM. It also gave a TGI (UACC-257 melanoma) of 68.3 µM, a GI50 (SK-MEL-28 melanoma) of 36.9 µM and a TGI (SK-MEL-28 melanoma) of over 100 µM. It also gave a GI50 (OVCAR-4 ovarian) of 39.2 µM, a TGI (OVCAR-4 ovarian) of over 100 µM and a GI50 (HCC-2998 colon) of 19.1 µM. The TGI (HCC-2998 colon) was 36.1 µM, the GI50 (U251 CNS) was 21.6 µM and the TGI (U251 CNS) was 44.8 µM. It also gave a GI50 (HCT-15 colon) of 28.5 µM, a TGI (HCT-15 colon) of over 100 µM and a GI50 (A498 renal) of 20.4 µM. For the same compound, the TGI (A498 renal) was 42.2 µM, the GI50 (NCI-H23 lung) was 28.8 µM and the TGI (NCI-H23 lung) was 72.1 µM. The GI50 (SK-MEL-5 melanoma) was 16.6 µM, the TGI (SK-MEL-5 melanoma) was 34.1 µM and the GI50 (BT-549 breast) was 14.3 µM. For the same compound, the TGI (BT-549 breast) was 31.3 µM, the GI50 (K-562 leukemia) was 43.9 µM and the TGI (K-562 leukemia) was over 100 µM. It also gave a GI50 (HOP-92 NSCLC) of 14.5 µM, a TGI (HOP-92 NSCLC) of 30 µM and a GI50 (TK-10 renal) of 52.9 µM. The TGI (TK-10 renal) was over 100 µM, the GI50 (MCF7 breast) was 11.8 µM and the TGI (MCF7 breast) was 37.5 µM. The GI50 (CCRF-CEM leukemia) was 0.813 µM, the TGI (CCRF-CEM leukemia) was 11.3 µM and the GI50 (ACHN renal) was 31.9 µM. It also gave a TGI (ACHN renal) of over 100 µM, a GI50 (MOLT-4 leukemia) of 23.2 µM and a TGI (MOLT-4 leukemia) of over 100 µM. It also gave a GI50 (COLO 205 colon) of 16.5 µM, a TGI (COLO 205 colon) of 34.1 µM and a GI50 (LOX IMVI melanoma) of 19.3 µM. For the same compound, the TGI (LOX IMVI melanoma) was 38 µM, the GI50 (UACC-62 melanoma) was 16 µM and the TGI (UACC-62 melanoma) was 32.4 µM. It also gave a GI50 (NCI-H522 lung) of 14.4 µM, a TGI (NCI-H522 lung) of 31.5 µM and a GI50 (UO-31 renal) of 13.8 µM. For the same compound, the TGI (UO-31 renal) was 34.7 µM, the GI50 (SK-MEL-2 melanoma) was 21.2 µM and the TGI (SK-MEL-2 melanoma) was 43.2 µM. It also gave a GI50 (HCT-116 colon) of 18.9 µM, a TGI (HCT-116 colon) of 39.7 µM and a GI50 (OVCAR-3 ovarian) of 24 µM. For the same compound, the TGI (OVCAR-3 ovarian) was 65.4 µM, the GI50 (OVCAR-5 ovarian) was 24.3 µM and the TGI (OVCAR-5 ovarian) was 59.8 µM.
